Results as given in article PMC4810081, “Venetoclax (ABT-199) Might Act as a Perpetrator in Pharmacokinetic Drug–Drug Interactions” (Pharmaceutics, 2016).

Assays:
[1] = Growth inhibition assay in MDCKII-MRP2 cells; format: cell-based; details: dog, MDCKII-MRP2 cells (MRP2 over-expressing)
Method: MDCKII cells. […] Moreover, MDCKII-BCRP cells were used to assess BCRP inhibition by venetoclax. MDCKII over-expressing cell lines were kindly provided by A. H. Schinkel and P. Borst (Amsterdam, The Netherlands). The parental cell line MDCKII (available at ATCC, Manassas, VA, USA) was used as a control. The cells were cultured in Dulbecco’s Modified Eagle’s Medium (DMEM) containing 10% FCS, 2 mM of glutamine, 100 U/mL of penicillin, and 100 µg/mL of streptomycin sulfate. Growth inhibition assays in LS180 cells were conducted to determine suitable maximum concentrations for the induction assay without profound antiproliferative effects. Proliferation was quantified by crystal violet staining of the surviving cells as described previously. […] Growth inhibition assays in MDCKII, and their MRP2 or BCRP over-expressing counterparts ([…], MDCKII-BCRP) and in LLC-PK1 and the corresponding P-gp over-expressing cell line L-MDR1 were conducted to evaluate whether venetoclax sustains its efficacy in MDR cell lines.

CYP1A2 = target: T1, CYP1A2 (Homo sapiens, UniProt P05177); experiment: CYP1A2 inhibition, P450-Glo CYP1A2 Screening System; format: in vitro ADME; details: luciferin-ME substrate, 0.05–100 µM tested
T1 construct: purchased Promega Corporation (Madison, WI, USA)
Method: (§1) Inhibition studies for CYP2B6, CYP2D6, CYP2C19 and CYP3A4 were performed with the CYP2B6/EFC, CYP2D6/AMMC, the CYP2C19/CEC, and the CYP3A4/BFC High Throughput Inhibitor Screening Kit according to the manufacturer’s instructions. The kits contain the respective recombinant CYP and fluorogenic substrates, which are blocked dyes emitting a fluorescence signal when cleaved by the enzyme. For testing CYP1A2 inhibition, the P450-Glo CYP1A2 Screening System was used according to the manufacturer’s instructions. The kit contains the luminogenic CYP1A2 substrate luciferin-ME, which is converted by CYP1A2 into luciferin-generating light when incubated with the luciferin detection reagent of the kit. Eight concentrations of venetoclax in duplicates (0.009–20 µM) were tested in the fluorescence assays, and eight concentrations in triplicate (0.05–100 µM) were tested for the luminogenic assay. Each experiment was conducted in triplicate.

CYP3A4 [2] = experiment: Induction assay, CYP3A4 mRNA by real-time RT-PCR in LS180 cells; format: in vitro ADME, human; details: four days, 0.01–10 µM
Method: (§2) LS180 cells. The human colon adenocarcinoma cell line LS180 (available at ATCC, Manassas, VA, USA) is one of the standard models for investigating pregnane X receptor (PXR) and aryl hydrocarbon receptor (AhR) mediated induction and was thus used for induction experiments. Cells were cultured under standard cell culture conditions with DMEM supplemented with 10% FCS, 2 mM of glutamine, 100 U/mL of penicillin, 100 µg/mL of streptomycin sulfate, and 0.1 mM of nonessential amino acids.
(§3) For the induction experiments, LS180 cells were seeded in 75 cm^2 culturing flasks and incubated for three days. […]
(§4) RNA was isolated using the GenElute™ Mammalian Total RNA Miniprep Kit, and cDNA was synthesized with the RevertAid™ H Minus First Strand cDNA Synthesis Kit according to the manufacturer's instructions. mRNA expression was quantified by real-time RT-PCR with the LightCycler® 480 (Roche Applied Science, Mannheim, Germany) as described previously. […] Data were evaluated via calibrator-normalized relative quantification with efficiency correction using the LightCycler® 480 software version 1.5 (Roche Applied Science, Mannheim, Germany). […] The following target genes were quantified: CYP1A1, CYP1A2, CYP3A4, ABCB1, ABCC2, ABCG2, SLCO1B1 (coding for OATP1B1), UDP-glucuronosyltransferase 1A3 (UGT1A3), and UGT1A9.

ABCG2 = experiment: Induction assay, ABCG2 mRNA by real-time RT-PCR in LS180 cells; format: in vitro ADME, human; details: four days, 0.01–10 µM
Method: as §2, §3, §4

CYP3A4 [3] = target: T2, CYP3A4 (Homo sapiens, UniProt P08684); experiment: CYP3A4 inhibition, CYP3A4/BFC High Throughput Inhibitor Screening Kit; format: in vitro ADME; details: recombinant CYP, fluorogenic substrate
T2 construct: purchased Becton Dickinson Biosciences (Heidelberg, Germany)
Method: as §1

LLC-PK1 = experiment: Growth inhibition assay in LLC-PK1 cells; format: cell-based, porcine; details: Sus scrofa
Method: LLC-PK1 and L-MDR1 cells. L-MDR1 cells, a porcine kidney epithelial cell line over-expressing the human ABCB1 gene and the corresponding parental control cell line LLC-PK1 (available from ATCC, Manassas, VA, USA) were used to assess the sensitivity of cells with and without P-gp over-expression. L-MDR1 cells were kindly provided by A. H. Schinkel (The Netherlands Cancer Institute, Division of Experimental Therapy, Amsterdam, The Netherlands). The cells were cultured under standard cell culture conditions with medium M199 supplemented with 10% FCS, 2 mM of glutamine, 100 U/mL of penicillin, and 100 µg/mL of streptomycin sulfate. To maintain P-gp/ABCB1 expression the culture medium for L-MDR1 was supplemented with 0.64 µM of vincristine. One day before seeding the cells for the growth inhibition assay, both cell lines were fed with a vincristine-free culture medium.
Growth inhibition assays in LS180 cells were conducted to determine suitable maximum concentrations for the induction assay without profound antiproliferative effects. Proliferation was quantified by crystal violet staining of the surviving cells as described previously. Each experiment was performed at least in triplicate with n = 8 wells for each concentration (0.1–100 µM). […]

CYP1A1 = experiment: Induction assay, CYP1A1 mRNA by real-time RT-PCR in LS180 cells; format: in vitro ADME, human; details: four days, 10 µM
Method: as §2, §3, §4

CYP2B6 = target: T3, CYP2B6 (Homo sapiens, UniProt P20813); experiment: CYP2B6 inhibition, CYP2B6/EFC High Throughput Inhibitor Screening Kit; format: in vitro ADME
T3 construct: purchased Becton Dickinson Biosciences (Heidelberg, Germany)
Method: as §1

LS180 cells = experiment: Growth inhibition (proliferation) assay in LS180 cells; format: cell-based; details: Homo sapiens, crystal violet staining
Method: as §2
Growth inhibition assays in LS180 cells were conducted to determine suitable maximum concentrations for the induction assay without profound antiproliferative effects. Proliferation was quantified by crystal violet staining of the surviving cells as described previously. Each experiment was performed at least in triplicate with n = 8 wells for each concentration (0.1–100 µM). The IC20 for proliferation inhibition by venetoclax was 8.4 ± 1.0 µM; thus, the maximum concentration for the induction assay was set to 10 µM, ensuring that about 80% of the cells will survive.

T3 sequence (P20813 whole entry): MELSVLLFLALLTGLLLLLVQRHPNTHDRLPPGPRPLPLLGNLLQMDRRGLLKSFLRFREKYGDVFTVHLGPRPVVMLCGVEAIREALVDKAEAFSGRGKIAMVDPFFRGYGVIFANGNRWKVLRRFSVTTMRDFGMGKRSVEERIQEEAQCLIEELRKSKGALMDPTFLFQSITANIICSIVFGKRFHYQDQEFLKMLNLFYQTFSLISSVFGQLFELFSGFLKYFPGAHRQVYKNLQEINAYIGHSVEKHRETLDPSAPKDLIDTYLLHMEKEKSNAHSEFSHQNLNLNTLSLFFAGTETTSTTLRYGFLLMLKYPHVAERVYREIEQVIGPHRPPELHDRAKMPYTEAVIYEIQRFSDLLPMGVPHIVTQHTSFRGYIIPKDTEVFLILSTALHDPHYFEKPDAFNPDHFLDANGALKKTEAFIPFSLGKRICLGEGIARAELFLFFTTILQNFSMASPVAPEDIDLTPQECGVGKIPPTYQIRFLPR
T1 sequence (P05177 whole entry): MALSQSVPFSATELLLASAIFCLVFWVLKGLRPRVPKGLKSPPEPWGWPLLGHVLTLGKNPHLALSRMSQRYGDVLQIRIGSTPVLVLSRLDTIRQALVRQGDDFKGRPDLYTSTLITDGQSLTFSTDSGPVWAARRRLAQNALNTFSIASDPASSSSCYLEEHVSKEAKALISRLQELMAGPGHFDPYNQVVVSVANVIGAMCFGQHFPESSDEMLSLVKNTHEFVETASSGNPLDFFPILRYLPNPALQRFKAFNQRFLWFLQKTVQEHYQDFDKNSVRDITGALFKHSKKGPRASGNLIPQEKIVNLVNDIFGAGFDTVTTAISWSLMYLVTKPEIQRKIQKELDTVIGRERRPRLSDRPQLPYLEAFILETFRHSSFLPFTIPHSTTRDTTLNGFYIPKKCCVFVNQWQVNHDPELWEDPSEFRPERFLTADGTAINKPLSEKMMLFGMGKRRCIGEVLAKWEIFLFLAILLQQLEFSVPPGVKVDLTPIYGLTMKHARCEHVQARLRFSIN
T2 sequence (P08684 whole entry): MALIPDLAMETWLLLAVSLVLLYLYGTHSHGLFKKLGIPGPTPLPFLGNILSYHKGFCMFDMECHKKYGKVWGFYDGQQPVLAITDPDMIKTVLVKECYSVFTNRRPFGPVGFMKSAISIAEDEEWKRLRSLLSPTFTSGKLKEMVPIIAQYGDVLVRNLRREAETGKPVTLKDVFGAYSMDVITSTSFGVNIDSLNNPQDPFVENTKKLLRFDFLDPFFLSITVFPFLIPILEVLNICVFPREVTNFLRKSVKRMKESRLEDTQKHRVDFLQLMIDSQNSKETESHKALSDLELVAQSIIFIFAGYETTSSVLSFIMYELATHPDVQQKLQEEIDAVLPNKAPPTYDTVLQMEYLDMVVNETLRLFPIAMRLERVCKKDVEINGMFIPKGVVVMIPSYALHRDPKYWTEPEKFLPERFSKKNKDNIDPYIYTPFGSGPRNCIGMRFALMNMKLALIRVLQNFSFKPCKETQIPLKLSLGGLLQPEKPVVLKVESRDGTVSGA

Q: For `CC1(C)CCC(CN2CCN(c3ccc(C(=O)NS(=O)(=O)c4ccc(NCC5CCOCC5)c([N+](=O)[O-])c4)c(Oc4cnc5[nH]ccc5c4)c3)CC2)=C(c2ccc(Cl)cc2)C1` [Venetoclax], which IC50 [1] is on record?
A: 17.2 ± 1.8 µM

Q: And the “IC50 CYP1A2 inhibition” value (CYP1A2)?
A: no inhibition

Q: What about the “mRNA expression of CYP3A4” value (CYP3A4 [2]) of the same compound?
A: unchanged

Q: And the “mRNA expression of ABCG2” value (ABCG2)?
A: unchanged

Q: What about the IC50 (CYP3A4 [3]) of the same compound?
A: 7.2 ± 3.2 µM

Q: And the IC50 (LLC-PK1; LLC-PK1, LLC-PK1 + LY335979 (1 µM))?
A: 24.9 ± 1 µM

Q: What about the IC50 (LLC-PK1; LLC-PK1, LLC-PK1 parental cells) of the same compound?
A: 21 ± 0.7 µM

Q: And the “mRNA expression of CYP1A1” value (CYP1A1)?
A: induced

Q: What about the “increase of CYP2B6 activity” value (CYP2B6; at 20 µM) of the same compound?
A: 1.7 fold

Q: And the “IC50 CYP2B6 inhibition” value (CYP2B6; recombinant CYP, fluorogenic substrate, 0.009–20 µM tested)?
A: activation

Q: What about the IC20 (LS180 cells) of the same compound?
A: 8.4 ± 1 µM
